From paper PMC3989888 (Virology, 2014)
Where two headings read alike, the source gives them in different places.

How the values were obtained:
CD4 T cells (PBMC) [1] = assay: Ex vivo class II tetramer staining and phenotyping of PBMC from adults; format: cell-based, human (DRB1*0101 healthy adults); settings: for #Tet+/6.0×10^5 CD4+ T cells: ex vivo fresh PBMC, tetramer of the peptide; for % α4β7(+) CCR9(+) / % α4β7(+) CCR9(−) / % α4β7(−) CCR9(+) / % α4β7(−) CCR9(−): of antigen experienced tetramer+ CD4 T cells; for % Antigen experienced T cells: tetramer+ CD4 T cells, CD62L−CD45RA+/− and CD62L+CD45RA−
CD4 T cells (PBMC) [2] = format: cell-based, human (HLA-DR1 children)

In the case of RVEYHFLSPYVSRKESP [TRF], the “#Tet+/6.0×10^5 CD4+ T cells” value (CD4 T cells (PBMC) [1]; HA-02) is reported as 8 /6.0×10^5 CD4^+ T cells, the “% α4β7(+) CCR9(+)” value (CD4 T cells (PBMC) [1]; HA-02) is reported as 33.3% and the “% α4β7(+) CCR9(−)” value (CD4 T cells (PBMC) [1]; HA-02) is reported as 33.3%. The “% α4β7(−) CCR9(+)” value (CD4 T cells (PBMC) [1]; HA-02) was 0%, the “% α4β7(−) CCR9(−)” value (CD4 T cells (PBMC) [1]; HA-02) was 33.3% and the “% Antigen experienced T cells” value (CD4 T cells (PBMC) [1]; HA-02) was 54.5%. For the same sequence, the “#Tet+/6.0×10^5 CD4+ T cells” value (CD4 T cells (PBMC) [1]; HA-15) was 4 /6.0×10^5 CD4^+ T cells, the “% Antigen experienced T cells” value (CD4 T cells (PBMC) [1]; HA-15) was 0% and the “#Tet+/6.0×10^5 CD4+ T cells” value (CD4 T cells (PBMC) [1]; HA-19) was 10 /6.0×10^5 CD4^+ T cells. For the same sequence, the “% α4β7(+) CCR9(+)” value (CD4 T cells (PBMC) [1]; HA-19) was 33.3%, the “% α4β7(+) CCR9(−)” value (CD4 T cells (PBMC) [1]; HA-19) was 8.33% and the “% α4β7(−) CCR9(+)” value (CD4 T cells (PBMC) [1]; HA-19) was 25%. For the same sequence, the “% α4β7(−) CCR9(−)” value (CD4 T cells (PBMC) [1]; HA-19) was 33.3%, the “% Antigen experienced T cells” value (CD4 T cells (PBMC) [1]; HA-19) was 85.7% and the “#Tet+/6.0×10^5 CD4+ T cells” value (CD4 T cells (PBMC) [1]; HA-23) was 8 /6.0×10^5 CD4^+ T cells. The “% α4β7(+) CCR9(+)” value (CD4 T cells (PBMC) [1]; HA-23) was 25%, the “% α4β7(+) CCR9(−)” value (CD4 T cells (PBMC) [1]; HA-23) was 25% and the “% α4β7(−) CCR9(+)” value (CD4 T cells (PBMC) [1]; HA-23) was 0%. For the same sequence, the “% α4β7(−) CCR9(−)” value (CD4 T cells (PBMC) [1]; HA-23) was 50%, the “% Antigen experienced T cells” value (CD4 T cells (PBMC) [1]; HA-23) was 57.1% and the “#Tet+/6.0×10^5 CD4+ T cells” value (CD4 T cells (PBMC) [1]; HA-29) was 14 /6.0×10^5 CD4^+ T cells. For the same sequence, the “% α4β7(+) CCR9(+)” value (CD4 T cells (PBMC) [1]; HA-29) was 50%, the “% α4β7(+) CCR9(−)” value (CD4 T cells (PBMC) [1]; HA-29) was 0% and the “% α4β7(−) CCR9(+)” value (CD4 T cells (PBMC) [1]; HA-29) was 0%. For the same sequence, the “% α4β7(−) CCR9(−)” value (CD4 T cells (PBMC) [1]; HA-29) was 50%, the “% Antigen experienced T cells” value (CD4 T cells (PBMC) [1]; HA-29) was 50% and the “#Tet+/6.0×10^5 CD4+ T cells” value (CD4 T cells (PBMC) [1]; HA-41) was 3 /6.0×10^5 CD4^+ T cells. For the same sequence, the “% α4β7(+) CCR9(+)” value (CD4 T cells (PBMC) [1]; HA-41) was 0%, the “% α4β7(+) CCR9(−)” value (CD4 T cells (PBMC) [1]; HA-41) was 33.3% and the “% α4β7(−) CCR9(+)” value (CD4 T cells (PBMC) [1]; HA-41) was 0%. For the same sequence, the “% α4β7(−) CCR9(−)” value (CD4 T cells (PBMC) [1]; HA-41) was 66.7%, the “% Antigen experienced T cells” value (CD4 T cells (PBMC) [1]; HA-41) was 100% and the “#Tet+/6.0×10^5 CD4+ T cells” value (CD4 T cells (PBMC) [1]; HA-51) was 98 /6.0×10^5 CD4^+ T cells. The “% α4β7(+) CCR9(+)” value (CD4 T cells (PBMC) [1]; HA-51) was 20.7%, the “% α4β7(+) CCR9(−)” value (CD4 T cells (PBMC) [1]; HA-51) was 44.8% and the “% α4β7(−) CCR9(+)” value (CD4 T cells (PBMC) [1]; HA-51) was 6.9%. The “% α4β7(−) CCR9(−)” value (CD4 T cells (PBMC) [1]; HA-51) was 27.6%, the “% Antigen experienced T cells” value (CD4 T cells (PBMC) [1]; HA-51) was 36.7% and the “#Tet+/6.0×10^5 CD4+ T cells” value (CD4 T cells (PBMC) [1]; HA-52) was 72 /6.0×10^5 CD4^+ T cells. For the same sequence, the “% α4β7(+) CCR9(+)” value (CD4 T cells (PBMC) [1]; HA-52) was 0%, the “% α4β7(+) CCR9(−)” value (CD4 T cells (PBMC) [1]; HA-52) was 66.7% and the “% α4β7(−) CCR9(+)” value (CD4 T cells (PBMC) [1]; HA-52) was 0%. For the same sequence, the “% α4β7(−) CCR9(−)” value (CD4 T cells (PBMC) [1]; HA-52) was 33.3%, the “% Antigen experienced T cells” value (CD4 T cells (PBMC) [1]; HA-52) was 27.3% and the “Tetramer+ cells with phenotype of antigen-experienced cells” value (CD4 T cells (PBMC) [2]; both groups of children (vaccinated and placebo), data not shown) was 0–30%. For the same sequence, the “Frequency of tetramer stained antigen experienced CD4 T cells” value (CD4 T cells (PBMC) [2]; placebo recipient children (n = 3)) was <0.0001–0.003% and the “Frequency of tetramer stained antigen experienced CD4 T cells” value (CD4 T cells (PBMC) [2]; vaccinated children (n = 3), two weeks after second dose of RIX4414) was <0.0001–0.01%.
